The assay has as its system Ba/F3 EGFR-Del19/T790M/C797S cells. In words: Proliferation inhibitory activity against Ba/F3 EGFR-Del19/T790M/C797S cells (PrestoBlue method). In kind it is cell-based, murine. Particulars: Mus musculus, Ba/F3 cells stably expressing EGFR Del19/T790M/C797S, 72 hours. As to the method:
The proliferation inhibitory activity of the compounds in vitro against the Ba/F3 EGFR-Del19/T790M/C797S cells from the murine pro B cell line Ba/F3 that stably express EGFR proteins with Del19/T790M/C797S triple mutations, is determined by the PrestoBlue method.
Cell source: Ba/F3 EGFR-Del19/T790M/C797S cells are purchased from Crown Bioscience (Beijing) Co., Ltd.
Ba/F3 EGFR-Del19/T790M/C797S cells are cultured in RPMI1640 complete medium containing 10% fetal calf serum. Take Ba/F3 EGFR-Del19/T790M/C797S cells in the logarithmic growth phase, inoculate them in a 96-well plate at a cell density of 5000 cells/135 μl complete culture medium/well, and place them at a constant temperature incubator containing 5% CO2 at 37° C. for culturing for 24 hours. […]
Take out the 96-well cell culture plate from the CO2 constant temperature incubator, add 15 μl of Invitrogen™ PrestoBlue™ HS cell viability detection reagent (Cat. No.: P50201) to each well, and continue to incubate for 3 hours in the constant temperature incubator containing 5% CO2 at 37° C. Take out the 96-well cell culture plate and measure the fluorescence at the 560 nm excitation wavelength and 590 nm emission wavelength of a microplate reader. […]
Data were analyzed using GraphPad Prism 8.3 software, and nonlinear S-curve regression was used to fit the data to obtain a dose-effect curve, from which the IC50 value was calculated.

As a reminder, the IC50 is the point on the concentration scale where inhibition reaches its midpoint.

Take `CN(C)CCN(C)c1nc(OCC(F)(F)F)c(Nc2nccc(-c3cn(C)c4ccccc34)n2)cc1NC(=O)CCN(C)CCN(C)c1nc(OCC(F)(F)F)c(Nc2nccc(-c3cn(C)c4ccccc34)n2)cc1N` [Compound 1]: the IC50 is 1860 nM.
To `C=CC(=O)Nc1cc(Nc2nccc(-c3cn(C)c4ccccc34)n2)c(OCC(F)(F)F)nc1N(C)CCN(C)CCC(=O)Nc1cc(Nc2nccc(-c3cn(C)c4ccccc34)n2)c(OCC(F)(F)F)nc1N(C)CCN(C)C` [Compound 4] belongs 293 nM.

For the origin of these results see patent US20250011302A1, “INDOLE BIPYRIMIDINE COMPOUND, AND INTERMEDIATE THEREOF, PREPARATION METHOD THEREFOR AND USE THEREOF” (SHANGHAI ALLIST PHARMACEUTICALS CO., LTD., priority 2021, published 2025).
